Tests used:
Type in all cases: in vivo
Leptochloa chinensis = experiment: Test Example 3: herbicidal effect by foliage application, Wagner pot (symbol D); conditions: for D (Leptochloa chinensis) herbicidal effect grade: Table 24
In short: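 In a shallow-flooded alluvial soil system held at 25–30 °C, plants including rice grew for 14 days and were then sprayed over the foliage with emulsion diluted to a fixed herbicide amount. Visual rating followed at 3 weeks.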

corn = experiment: Test Example 4: effect on crop by soil treatment (symbol c)
In short: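 Grown at 25° C. to 30° C. in a greenhouse, the crops came from seed sown spot-wise in sterilized diluvial soil under roughly 1.5 cm of covering soil.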

Lolium multiflorum Lam. = experiment: Test Example 4: herbicidal effect by soil treatment (symbol K)
In short: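 Seeds were sown in sterilized diluvial soil, covered with about 1.5 cm of soil, and the soil surface was sprayed with a water-diluted emulsion of the compound at a predetermined rate. Plants grew in a greenhouse at 25° C. to 30° C.; effects were scored visually 3 weeks after application.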

[1] = application herbicide amount 320 g/ha
[2] = application herbicide amount 269 g/ha

SMILES | D (Leptochloa chinensis) herbicidal effect grade (Leptochloa chinensis; [1]) | Effect on crop grade, c: corn (corn; [1]) | Herbicidal effect grade, K: Lolium multiflorum Lam. (Lolium multiflorum Lam.; [1]) | herbicidal effect on D (Leptochloa chinensis), grade 0-5 (Leptochloa chinensis; [1]) | c: corn, effect grade on crop (corn; 320 g/ha) | K: Lolium multiflorum Lam., herbicidal effect grade (Lolium multiflorum Lam.; 320 g/ha) | also measured
CCC(=O)CC1CC(O)=C(c2c(C)cc(Br)cc2OC)C1=O (racemic) [14-002] | 5 (Herbicidal ratio of 90% or more (almost completely withered)) |  |  |  |  |  | c: corn, effect on crop grade (corn; [1]): 1 (Herbicidal ratio of 5% or higher and lower than 20%); K: Lolium multiflorum Lam., herbicidal effect grade (Lolium multiflorum Lam.; [1]): 5 (Herbicidal ratio of 90% or more (almost completely withered))
CC#Cc1cc(C)c(C2=C(O)CC(CC(C)=NOCC(F)(F)F)C2=O)c(C)c1 (stereo not drawn) [9-011] | 5 (Herbicidal ratio of 90% or more (almost completely withered)) | 5 (Herbicidal ratio of 90% or more (almost completely withered)) | 5 (Herbicidal ratio of 90% or more (almost completely withered)) |  |  |  | 
CC(CC1CC(O)=C(c2c(C)cc(C)cc2C)C1=O)=NOCC(N)=O (stereo not drawn) [1-124] |  |  |  | 5 (Herbicidal ratio of 90% or more (almost completely withered)) | 0 (Herbicidal ratio of 5% or lower (almost no effect)) | 3 (Herbicidal ratio of 40% or higher and lower than 70%) | 
CC(CC1CC(O)=C(c2c(C)cc(C)cc2C)C1=O)=NOCc1ccc(F)cc1 (stereo not drawn) [1-136] |  |  |  | 2 (Herbicidal ratio of 20% or higher and lower than 40%) | 0 (Herbicidal ratio of 5% or lower (almost no effect)) | 5 (Herbicidal ratio of 90% or more (almost completely withered)) | 
CC(CC1CC(OC(=O)COc2ccccc2)=C(c2c(C)cc(-n3cc(Cl)cn3)cc2C)C1=O)=NOCC(F)(F)F (stereo not drawn) [9-012] | 5 (Herbicidal ratio of 90% or more (almost completely withered)) | 2 (Herbicidal ratio of 20% or higher and lower than 40%) | 5 (Herbicidal ratio of 90% or more (almost completely withered)) |  |  |  | 
COCCON=C(C)CC1CC(O)=C(c2c(C)cc(Br)cc2C)C1=O (stereo not drawn) [9-017] | 5 (Herbicidal ratio of 90% or more (almost completely withered)) | 0 (Herbicidal ratio of 5% or lower (almost no effect)) | 0 (Herbicidal ratio of 5% or lower (almost no effect)) |  |  |  | 
CC(CC1CC(O)=C(c2c(C)cc(-n3cc(Cl)cn3)cc2C)C1=O)=NOCC(F)(F)F (stereo not drawn) [9-010] | 5 (Herbicidal ratio of 90% or more (almost completely withered)) | 1 (Herbicidal ratio of 5% or higher and lower than 20%) | 5 (Herbicidal ratio of 90% or more (almost completely withered)) |  |  |  | 
CC#Cc1cc(C)c(C2=C(O)CC(CC(=NOCCOC)C(C)C)C2=O)c(C)c1 (stereo not drawn) [9-023] | 5 (Herbicidal ratio of 90% or more (almost completely withered)) | 3 (Herbicidal ratio of 40% or higher and lower than 70%) | 3 (Herbicidal ratio of 40% or higher and lower than 70%) |  |  |  | 
CON=C(C)CC1CC(OC(=O)N(C)C)=C(c2c(C)cc(C)cc2C)C1=O (stereo not drawn) [1-108] |  |  |  | 5 (Herbicidal ratio of 90% or more (almost completely withered)) | 5 (Herbicidal ratio of 90% or more (almost completely withered)) | 5 (Herbicidal ratio of 90% or more (almost completely withered)) | 
CON=C(C)CC1CC(OC(=O)c2cc(C)on2)=C(c2c(C)cc(C)cc2C)C1=O (stereo not drawn) [1-100] |  |  |  | 5 (Herbicidal ratio of 90% or more (almost completely withered)) | 5 (Herbicidal ratio of 90% or more (almost completely withered)) | 5 (Herbicidal ratio of 90% or more (almost completely withered)) | 
CCC(CC1CC(O)=C(c2c(C)cc(-c3ccccc3)cc2OC)C1=O)=NOC (mixture of isomers) [13-004] | 5 (Herbicidal ratio of 90% or more (almost completely withered)) |  |  |  |  |  | c: corn, effect on crop grade (corn; [1]): 5 (Herbicidal ratio of 90% or more (almost completely withered)); K: Lolium multiflorum Lam., herbicidal effect grade (Lolium multiflorum Lam.; [1]): 5 (Herbicidal ratio of 90% or more (almost completely withered))
CON=C(C)CC1CC(OC(=O)C2CCCO2)=C(c2c(C)cc(C)cc2C)C1=O (stereo not drawn) [1-076] |  |  |  |  |  |  | herbicidal effect on D (Leptochloa chinensis), grade 0-5 (Leptochloa chinensis; application herbicide amount 192 g/ha): 5 (Herbicidal ratio of 90% or more (almost completely withered)); c: corn, effect grade on crop (corn; 192 g/ha): 2 (Herbicidal ratio of 20% or higher and lower than 40%); K: Lolium multiflorum Lam., herbicidal effect grade (Lolium multiflorum Lam.; 192 g/ha): 5 (Herbicidal ratio of 90% or more (almost completely withered))
CC(CC1CC(O)=C(c2c(C)cc(C)cc2C)C1=O)=NOCC(C)Br (stereo not drawn) [1-135] |  |  |  | 4 (Herbicidal ratio of 70% or higher and lower than 90%) | 0 (Herbicidal ratio of 5% or lower (almost no effect)) | 5 (Herbicidal ratio of 90% or more (almost completely withered)) | 
CC(CC1CC(O)=C(c2c(C)cc(C)cc2C)C1=O)=NOCC1CC1(F)F (stereo not drawn) [1-109] |  |  |  | 5 (Herbicidal ratio of 90% or more (almost completely withered)) | 1 (Herbicidal ratio of 5% or higher and lower than 20%) | 5 (Herbicidal ratio of 90% or more (almost completely withered)) | 
CC(=O)C(C)C1CC(O)=C(c2c(C)cc(C)cc2C)C1=O (stereo not drawn) [2-005] |  |  |  |  |  |  | herbicidal effect on D (Leptochloa chinensis), grade 0-5 (Leptochloa chinensis; [2]): 5 (Herbicidal ratio of 90% or more (almost completely withered)); c: corn, effect on crop grade (corn; [2]): 0 (Herbicidal ratio of 5% or lower (almost no effect)); K: Lolium multiflorum Lam., herbicidal effect grade (Lolium multiflorum Lam.; [2]): 5 (Herbicidal ratio of 90% or more (almost completely withered))
CC(CC1CC(O)=C(c2c(C)cc(C)cc2C)C1=O)=NOCC(C)Cl (stereo not drawn) [1-121] |  |  |  | 5 (Herbicidal ratio of 90% or more (almost completely withered)) | 1 (Herbicidal ratio of 5% or higher and lower than 20%) | 5 (Herbicidal ratio of 90% or more (almost completely withered)) | 
CON=C(C)CC1CC(OC(=O)CN(C)C(=O)c2ccccc2)=C(c2c(C)cc(C)cc2C)C1=O (stereo not drawn) [1-139] |  |  |  | 5 (Herbicidal ratio of 90% or more (almost completely withered)) | 5 (Herbicidal ratio of 90% or more (almost completely withered)) | 5 (Herbicidal ratio of 90% or more (almost completely withered)) | 
COCCON=C(C)CC1CC(O)=C(c2c(C)cc(-n3cc(Cl)cn3)cc2C)C1=O (stereo not drawn) [9-016] | 5 (Herbicidal ratio of 90% or more (almost completely withered)) | 3 (Herbicidal ratio of 40% or higher and lower than 70%) | 5 (Herbicidal ratio of 90% or more (almost completely withered)) |  |  |  | 
CC(CC1CC(OC(=O)N2CCOCC2)=C(c2c(C)cc(-c3ccc(Cl)cc3)cc2C)C1=O)=NOCC(F)(F)F (mixture of isomers) [9-025] | 5 (Herbicidal ratio of 90% or more (almost completely withered)) | 0 (Herbicidal ratio of 5% or lower (almost no effect)) | 0 (Herbicidal ratio of 5% or lower (almost no effect)) |  |  |  | 
COC(=O)c1ccc(CON=C(C)CC2CC(O)=C(c3c(C)cc(C)cc3C)C2=O)cc1 (stereo not drawn) [1-118] |  |  |  | 0 (Herbicidal ratio of 5% or lower (almost no effect)) | 0 (Herbicidal ratio of 5% or lower (almost no effect)) | 3 (Herbicidal ratio of 40% or higher and lower than 70%) | 
CC#Cc1cc(C)c(C2=C(O)CC(CC(=NOC)C(C)C)C2=O)c(C)c1 (stereo not drawn) [9-006] | 5 (Herbicidal ratio of 90% or more (almost completely withered)) | 5 (Herbicidal ratio of 90% or more (almost completely withered)) | 5 (Herbicidal ratio of 90% or more (almost completely withered)) |  |  |  | 
CON=C(C)CC1CC(OC(C)=O)=C(c2c(C)cc(C)cc2C)C1=O (stereo not drawn) [1-005] |  |  |  | 5 (Herbicidal ratio of 90% or more (almost completely withered)) |  |  | c (corn) effect on crop grade (corn; [1]): 4 (Herbicidal ratio of 70% or higher and lower than 90%); K (Lolium multiflorum Lam.) herbicidal effect grade (Lolium multiflorum Lam.; [1]): 5 (Herbicidal ratio of 90% or more (almost completely withered))
CON=C(C)CC1CC(OC(=O)C(C)(C)C)=C(c2c(C)cc(C)cc2C)C1=O (stereo not drawn) [1-004, 2-mesityl-4-{2-(methoxyimino)propyl}-3-oxocyclopent-1-en-1-yl pivalate] |  |  |  | 5 (Herbicidal ratio of 90% or more (almost completely withered)) |  |  | c (corn) effect on crop grade (corn; [1]): 4 (Herbicidal ratio of 70% or higher and lower than 90%); K (Lolium multiflorum Lam.) herbicidal effect grade (Lolium multiflorum Lam.; [1]): 5 (Herbicidal ratio of 90% or more (almost completely withered))
